Assay results: US11078228B2, “Ectonucleotidase inhibitors and methods of use thereof” (Calithera Biosciences, Inc., priority 2018, dated 2021)

These molecules were tested against recombinant CD73 (Homo sapiens (Human), UniProt P21589) (assay: Assay 2: Inhibition of the CD73 enzyme in vitro (0.05 nM CD73, 1 hour 37° C., Malachite Green)). Conditions: 0.05 nM CD73, 50 μM AMP, 1 hour at 37° C.
recombinant CD73, sequence (P21589 27-547): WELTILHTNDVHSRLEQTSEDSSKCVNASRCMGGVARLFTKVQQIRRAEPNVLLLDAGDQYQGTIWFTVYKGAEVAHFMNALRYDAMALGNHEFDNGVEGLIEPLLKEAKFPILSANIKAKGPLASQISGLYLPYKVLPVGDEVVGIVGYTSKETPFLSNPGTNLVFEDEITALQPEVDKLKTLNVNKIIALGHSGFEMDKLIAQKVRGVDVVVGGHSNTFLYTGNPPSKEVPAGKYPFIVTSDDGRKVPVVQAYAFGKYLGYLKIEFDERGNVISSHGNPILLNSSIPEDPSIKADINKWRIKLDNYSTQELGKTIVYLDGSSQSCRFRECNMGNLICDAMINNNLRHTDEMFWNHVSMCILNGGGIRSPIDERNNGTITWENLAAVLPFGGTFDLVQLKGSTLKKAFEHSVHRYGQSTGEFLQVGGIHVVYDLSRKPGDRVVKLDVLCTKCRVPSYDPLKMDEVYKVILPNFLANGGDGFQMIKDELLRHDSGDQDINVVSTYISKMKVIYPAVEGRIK
Format: biochemical
In short: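 Free phosphate was quantified from absorbance at 630 nm against a phosphate standard curve. This was read 5 min after Malachite Green was added at room temperature. Beforehand, the recombinant soluble enzyme reacted for 1 hour at 37° C.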
`C#C[C@@]1(O)[C@@H](COC(Cc2ccncc2)(C(=O)O)C(=O)O)O[C@@H](n2cnc3c(N)nc(Cl)nc32)[C@@H]1O` [Compound 7, 2-(((2R,3S,4R,5R)-5-(6-amino-2-chloro-9H-purin-9-yl)-3-ethynyl-3,4-dihydroxytetrahydrofuran-2-yl)methoxy)-2-(pyridin-4-ylmethyl)malonic acid] was tested, and the IC50 was 8 nM. In the case of `C#C[C@@]1(O)[C@@H](COC(Cc2ccccc2)(C(=O)O)C(=O)O)O[C@@H](n2cnc3c(N4CC[C@H](CO)C4)nc(Cl)nc32)[C@@H]1O` [Example 101, 2-benzyl-2-(((2R,3S,4R,5R)-5-(2-chloro-6-((S)-3-(hydroxymethyl)-pyrrolidin-1-yl)-9H-purin-9-yl)-3-ethynyl-3,4-dihydroxytetrahydrofuran-2-yl)methoxy)malonic acid], the IC50 is reported as 1 nM. `C#C[C@@]1(O)[C@@H](COC(Cc2ccccc2)(C(=O)O)C(=O)O)O[C@@H](n2cnc3c(N4CCOCC4)nc(Cl)nc32)[C@@H]1O` [Example 79, 2-benzyl-2-(((2R,3S,4R,5R)-5-(2-chloro-6-morpholino-9H-purin-9-yl)-3-ethynyl-3,4-dihydroxytetrahydrofuran-2-yl)methoxy)malonic acid] gave an IC50 of 4 nM. For `C#C[C@@]1(O)[C@@H](COC(Cc2ccccc2)(C(=O)O)C(=O)O)O[C@@H](n2cnc3c(N)nc(C(N)=O)nc32)[C@@H]1O` [Example 122, 2-(((2R,3S,4R,5R)-5-(6-amino-2-carbamoyl-9H-purin-9-yl)-3-ethynyl-3,4-dihydroxytetrahydrofuran-2-yl)methoxy)-2-benzylmalonic acid], the IC50 was 40 nM. For `C#C[C@@]1(O)[C@@H](COC(Cc2ccccc2)(C(=O)O)C(=O)O)O[C@@H](n2cnc3c(NCc4cccc(Cl)c4)nc(Cl)nc32)[C@@H]1O` [Example 86, 2-benzyl-2-(((2R,3S,4R,5R)-5-(2-chloro-6-((3-chlorobenzyl)amino)-9H-purin-9-yl)-3-ethynyl-3,4-dihydroxytetrahydrofuran-2-yl)methoxy)malonic acid], the IC50 was 1 nM. Work on `C#C[C@@]1(O)[C@@H](COC(Cc2ccc(N3CCCNC3=O)cc2)(C(=O)O)C(=O)O)O[C@@H](n2cnc3c(NCC4CC4)nc(Cl)nc32)[C@@H]1O` [Example 136, 2-(((2R,3S,4R,5R)-5-(2-chloro-6-((cyclopropylmethyl)amino)-9H-purin-9-yl)-3-ethynyl-3,4-dihydroxytetrahydrofuran-2-yl)methoxy)-2-(4-(2-oxotetrahydropyrimidin-1(2H)-yl)benzyl)malonic acid] yielded an IC50 of 0.24 nM. `C#C[C@@]1(O)[C@@H](COC(CC=C)(C(=O)O)C(=O)O)O[C@@H](n2cnc3c(N)nc(Cl)nc32)[C@@H]1O` [Example 15, 2-allyl-2-(((2R,3S,4R,5R)-5-(6-amino-2-chloro-9H-purin-9-yl)-3-ethynyl-3,4-dihydroxytetrahydrofuran-2-yl)methoxy)malonic acid] gave an IC50 of 20 nM. `C#C[C@@]1(O)[C@@H](COC(Cc2ccccc2)(C(=O)O)C(=O)O)O[C@@H](n2cnc3c(NCC4(O)CC4)nc(Cl)nc32)[C@@H]1O` [Example 44, 2-benzyl-2-(((2R,3S,4R,5R)-5-(2-chloro-6-(((1-hydroxycyclopropyl)-methyl)amino)-9H-purin-9-yl)-3-ethynyl-3,4-dihydroxytetrahydrofuran-2-yl)methoxy)malonic acid] showed an IC50 of 62 nM. `C#C[C@@]1(O)[C@@H](CO[C@@](Cc2ccccc2)(C(=O)O)c2cscn2)O[C@@H](n2cnc3c(NCC4CC4)nc(Cl)nc32)[C@@H]1O` (single isomer, unassigned) [Example 173] was tested, and the IC50 was 112 nM. `C#C[C@@]1(O)[C@@H](COC(Cc2ccccc2)(C(=O)O)C(=O)O)O[C@@H](n2cnc3c(N)nc(SCC)nc32)[C@@H]1O` [Example 145, 2-(((2R,3S,4R,5R)-5-(6-amino-2-(ethylthio)-9H-purin-9-yl)-3-ethynyl-3,4-dihydroxytetrahydrofuran-2-yl)methoxy)-2-benzylmalonic acid] gave an IC50 of 108 nM.
